Data taken from PMC9394736 (FASEB journal : official publication of the Federation of …, 2020).

Columns and labels:
GDAP1ΔTM = biological target: T1, GDAP1ΔTM (Mus musculus, UniProt O88741); assay: differential scanning fluorimetry; assay type: binding; conditions: 2 mM or 0.5 mM ethacrynic acid; H-site
T1 sequence (O88741 1-322): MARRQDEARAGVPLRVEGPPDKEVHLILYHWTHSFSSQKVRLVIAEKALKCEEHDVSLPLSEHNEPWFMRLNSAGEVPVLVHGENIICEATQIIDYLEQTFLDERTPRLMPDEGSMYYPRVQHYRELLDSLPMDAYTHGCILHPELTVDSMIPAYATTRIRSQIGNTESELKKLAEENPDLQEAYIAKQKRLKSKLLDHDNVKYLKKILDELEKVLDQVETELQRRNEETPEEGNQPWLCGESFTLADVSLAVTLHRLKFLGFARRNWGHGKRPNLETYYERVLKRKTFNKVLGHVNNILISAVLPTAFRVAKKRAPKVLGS

GDAP1ΔNTΔHD1 = biological target: T2, GDAP1ΔNTΔHD1 (Mus musculus, UniProt O88741); assay: differential scanning fluorimetry; assay type: binding; conditions: 2 mM or 0.5 mM ethacrynic acid; H-site
T2 sequence (O88741 20-292): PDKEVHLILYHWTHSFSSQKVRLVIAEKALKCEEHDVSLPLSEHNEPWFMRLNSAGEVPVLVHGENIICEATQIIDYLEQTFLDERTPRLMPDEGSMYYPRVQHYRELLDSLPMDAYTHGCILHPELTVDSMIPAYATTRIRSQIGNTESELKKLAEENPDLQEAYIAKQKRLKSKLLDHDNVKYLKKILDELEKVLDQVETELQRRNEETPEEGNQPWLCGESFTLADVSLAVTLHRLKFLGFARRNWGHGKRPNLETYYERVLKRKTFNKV

GDAP1ΔHD1 = biological target: T3, GDAP1ΔHD1 (Mus musculus, UniProt O88741); assay: differential scanning fluorimetry; assay type: binding; conditions: 2 mM or 0.5 mM ethacrynic acid; H-site
T3 sequence (O88741 1-292): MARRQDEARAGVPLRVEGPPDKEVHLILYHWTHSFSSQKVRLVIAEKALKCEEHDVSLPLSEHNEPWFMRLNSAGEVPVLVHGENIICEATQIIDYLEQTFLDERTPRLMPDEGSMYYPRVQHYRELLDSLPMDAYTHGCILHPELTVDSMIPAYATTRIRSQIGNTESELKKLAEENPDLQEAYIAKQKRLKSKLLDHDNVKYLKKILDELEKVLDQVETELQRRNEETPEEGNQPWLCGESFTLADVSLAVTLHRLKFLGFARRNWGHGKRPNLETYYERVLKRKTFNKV

GST Mu = GST Mu (Schistosoma japonicum, UniProt P08515); assay: differential scanning fluorimetry; assay type: binding; conditions: 1 mM ethacrynic acid, without or with 1 mM GSH; H-site
GDAP1ΔNT = biological target: T4, GDAP1ΔNT (Mus musculus, UniProt O88741); assay: differential scanning fluorimetry; assay type: binding; conditions: 2 mM or 0.5 mM ethacrynic acid; H-site
T4 sequence (O88741 20-322): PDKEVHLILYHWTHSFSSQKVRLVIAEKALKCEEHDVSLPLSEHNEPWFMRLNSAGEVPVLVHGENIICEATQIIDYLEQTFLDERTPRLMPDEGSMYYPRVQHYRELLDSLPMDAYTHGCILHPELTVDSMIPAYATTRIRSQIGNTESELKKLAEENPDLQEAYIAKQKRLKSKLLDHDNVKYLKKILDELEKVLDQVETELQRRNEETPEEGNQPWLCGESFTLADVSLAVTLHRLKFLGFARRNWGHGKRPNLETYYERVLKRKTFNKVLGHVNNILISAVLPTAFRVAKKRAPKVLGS

[1] = biological target: GST Mu (Mu class glutathione S-transferase from Schistosoma japonicum) (Schistosoma japonicum); assay: SEC

Sequence of GST Mu (P08515 whole entry): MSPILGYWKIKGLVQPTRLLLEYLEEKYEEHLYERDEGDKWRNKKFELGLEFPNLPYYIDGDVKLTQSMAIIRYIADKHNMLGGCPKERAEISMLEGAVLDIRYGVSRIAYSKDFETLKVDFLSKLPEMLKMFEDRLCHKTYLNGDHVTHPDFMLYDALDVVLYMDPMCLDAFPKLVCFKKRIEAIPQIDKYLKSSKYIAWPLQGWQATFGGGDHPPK
Sequence of GST Mu (Mu class glutathione S-transferase from Schistosoma japonicum) (enzyme) (P08515 2-218): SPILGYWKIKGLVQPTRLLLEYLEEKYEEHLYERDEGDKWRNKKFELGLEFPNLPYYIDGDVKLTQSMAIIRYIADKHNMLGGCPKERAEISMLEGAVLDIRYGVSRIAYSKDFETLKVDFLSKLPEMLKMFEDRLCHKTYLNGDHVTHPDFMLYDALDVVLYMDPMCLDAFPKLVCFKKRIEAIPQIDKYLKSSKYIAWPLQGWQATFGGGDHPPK

`C=C(CC)C(=O)c1ccc(OCC(=O)O)c(Cl)c1Cl` [ethacrynic acid] was tested, and the melting temperature shift (GDAP1ΔTM) was “GDAP1ΔTM, GDAP1ΔHD1, GDAP1ΔNT, GDAP1ΔNT ΔHD1 all retained ethacrynic acid binding”, the melting temperature shift (GDAP1ΔNTΔHD1) was “GDAP1ΔTM, GDAP1ΔHD1, GDAP1ΔNT, GDAP1ΔNT ΔHD1 all retained ethacrynic acid binding” and the melting temperature shift (GDAP1ΔHD1) was “GDAP1ΔHD1 retains binding but the magnitude of the shift was reduced”. The melting temperature shift (GST Mu) was “GST Mu had an enhanced shift in the presence of both glutathione and EA” and the melting temperature shift (GDAP1ΔNT) was “GDAP1ΔTM, GDAP1ΔHD1, GDAP1ΔNT, GDAP1ΔNT ΔHD1 all retained ethacrynic acid binding”.
For “GST Mu (Mu class glutathione S-transferase from Schistosoma japonicum) (enzyme)”, the stoichiometry N [1] was 2.
